Calls of active or inactive are those of the source. The rule behind the calls is not given here.
Assays:
[1] = Anti-lymphangiogenic activity in HDLEC assessed as cell growth at 50 ug/ml incubated for 48 hrs by SRB staining based assay relative to control; type: functional; details: Homo sapiens, read-out: Activity
Homo sapiens = species on record: Homo sapiens; experiment: Anti-lymphangiogenic activity in HDLEC assessed as reduction in tube formation at 50 ug/ml incubated for 8 hrs by matrigel tube formation based inverted phase contrast microscopic analysis; type: functional
[2] = Anti-lymphangiogenic activity in HDLEC assessed as reduction in tube formation incubated for 8 hrs by matrigel tube formation based inverted phase contrast microscopic analysis; type: functional, Homo sapiens
[3] = Cytotoxicity against HDLEC at 50 ug/ml incubated for 24 hrs by LDH assay; details: human
[4] = Anti-lymphangiogenic activity in HDLEC assessed as cell growth at 10 ug/ml incubated for 48 hrs by SRB staining based assay relative to control; type: functional; details: Homo sapiens, read-out: Activity

Compound | growth at 50 µg/mL [1] | further results
C[C@H]1C[C@@H]2CN3C4=C[C@@]56CO[C@]7(C)CC(=O)[C@@H]([C@H]5C7)[C@@H](C)C(=O)[C@@H]6[C@@]5(COC(=O)C5)[C@]4(C)CC[C@@]3(C1)O2 | 85% | 
CC1=CC(=O)[C@@H]2[C@@H](C1)[C@]13CO[C@@]4([C@@H]1O)N1C[C@H]5C[C@H](C)C[C@@]1(O5)[C@@H](O)C[C@@]4(C)[C@]1(COC(=O)C1)[C@H]3C(=O)[C@@H]2C | 100% | 
CC1=CC(=O)[C@@H]2[C@@H](C1)[C@]13C=C4N5C[C@H]6C[C@H](C)C[C@@]5(O6)[C@@H](O)C[C@@]4(C)[C@]4(COC(=O)C4)[C@H]1[C@@](O)(OC3)[C@@H]2C | 83% | 
C[C@H]1C[C@@H]2CN3C4=C[C@@]5(C)[C@@H]6CC(CO)=CC(=O)[C@H]6[C@@H](C)C(=O)[C@@H]5[C@@]5(COC(=O)C5)[C@]4(C)CC[C@@]3(C1)O2 | 56% | inhibition (Homo sapiens): Active; IC50 [2]: 98 µM; Activity [3]: Non-Toxic
C[C@H]1C[C@@H]2CN3C4=C[C@@]56CO[C@]7(C)CC(=O)[C@@H]([C@H]5C7)[C@@H](C)C(=O)[C@H]6[C@@]5(COC(=O)C5)[C@]4(C)CC[C@@]3(C1)O2 | 82% | 
C[C@H]1C[C@@H]2CN3[C@H]4C(=O)[C@@]56CO[C@]7(C)CC(=O)[C@@H]([C@H]5C7)[C@@H](C)C(=O)[C@@H]6[C@@]5(COC(=O)C5)[C@]4(C)CC[C@@]3(C1)O2 | 86% | 
CC1=CC(=O)[C@@H]2[C@@H](C1)[C@]13CO[C@@]4([C@@H]1O)N1C[C@@H]5O[C@@]1(CC[C@@]4(C)[C@]1(COC(=O)C1)[C@H]3C(=O)[C@@H]2C)C[C@@H](C)[C@H]5O | 98% | 
CC1=CC(=O)[C@@H]2[C@@H](C1)[C@]13CO[C@@]4([C@@H]1O)N1C[C@H]5C[C@H](C)C[C@]1(CC[C@@]4(C)[C@]1(COC(=O)C1)[C@H]3C(=O)[C@@H]2C)O5 | 81% | 
COC(=O)CNCC1=CC(=O)[C@@H]2[C@@H](C1)[C@]13C=C4N5C[C@H]6C[C@H](C)C[C@]5(CC[C@@]4(C)[C@]4(COC(=O)C4)[C@H]1[C@@](O)(OC3)[C@@H]2C)O6 | 38% | inhibition (Homo sapiens): Active; IC50 [2]: 68 µM; Activity [3]: Non-Toxic
CC1=CC(=O)[C@@H]2[C@@H]([C@@H]1O)[C@]1(C)C=C3N4C[C@H]5C[C@H](C)C[C@]4(CC[C@@]3(C)[C@]3(COC(=O)C3)[C@H]1C(=O)[C@@H]2C)O5 | 75% | 
CO[C@H]1C[C@@H]2CC[C@@H](C)[C@@](O)(O2)C(=O)C(=O)N2CCCC[C@H]2C(=O)O[C@H]([C@H](C)C[C@@H]2CC[C@@H](O)[C@H](OC)C2)CC(=O)[C@H](C)/C=C(\C)[C@@H](O)[C@@H](OC)C(=O)[C@H](C)C[C@H](C)/C=C/C=C/C=C/1C [SIROLIMUS] |  | growth at 10 µg/mL [4]: 17%; IC50 [2]: 57 µM
CC1=CC(=O)[C@@H]2[C@@H](C1)[C@]13C=C4N5C[C@@H]6O[C@@]5(CC[C@@]4(C)[C@]4(COC(=O)C4)[C@H]1[C@@](O)(OC3)[C@@H]2C)C[C@@H](C)[C@H]6O | 101% | 
CC1=CC(=O)[C@@H]2[C@@H](C1)[C@]1(C)C=C3N4C[C@H]5C[C@H](C)C[C@]4(CC[C@@]3(C)[C@]3(COC(=O)C3)[C@H]1C(=O)[C@@H]2C)O5 | 91% | 
CC1=CC(=O)[C@@H]2[C@@H](C1)[C@]1(C)C=C3N4C[C@@H]5O[C@@]4(CC[C@@]3(C)[C@]3(COC(=O)C3)[C@H]1C(=O)[C@@H]2C)C[C@@H](C)[C@H]5O | 85% | 
C[C@H]1C[C@@H]2CN3[C@](CC[C@@]4(C)[C@]5(COC(=O)C5)[C@H]5C(=O)[C@H](C)[C@@H]6C(=O)C=C(CO)C[C@H]6[C@@]56CO[C@@]34[C@@H]6O)(C1)O2 | 66% | 
C[C@H]1C[C@@H]2CN3C4=C[C@@]56CO[C@@](O)([C@H](C)[C@@H]7C(=O)C=C(CO)C[C@H]75)[C@@H]6[C@@]5(COC(=O)C5)[C@]4(C)CC[C@@]3(C1)O2 | 60% | inhibition (Homo sapiens): Active; IC50 [2]: 99 µM; Activity [3]: Non-Toxic
COC(=O)CNCC1=CC(=O)[C@@H]2[C@@H](C1)[C@]13CO[C@@]4([C@@H]1O)N1C[C@H]5C[C@H](C)C[C@]1(CC[C@@]4(C)[C@]1(COC(=O)C1)[C@H]3C(=O)[C@@H]2C)O5 | 76% | 
CC1=CC(=O)[C@@H]2[C@@H](C1)[C@]13C=C4N5C[C@H]6C[C@H](C)C[C@]5(CC[C@@]4(C)[C@]4(COC(=O)C4)[C@H]1[C@@](O)(OC3)[C@@H]2C)O6 | 88% | 

Source: ChEMBL document CHEMBL4376824, “Anti-Lymphangiogenic Alkaloids from the Zoanthid Zoanthus vietnamensis Collected in Taiwan” (J Nat Prod, 2019)
